Reference: BigSolDB 2.1

CC(=O)c1ccc2cc(C)ccc2c1
Conditions | solubility (mole fraction)
in n-dodecane, 273.15 K | 0.00876
in n-dodecane, 279.65 K | 0.0122
in n-dodecane, 283.15 K | 0.0146
in n-dodecane, 288.15 K | 0.0188
in n-dodecane, 291.15 K | 0.022
in n-dodecane, 293.65 K | 0.0254
in n-dodecane, 296.65 K | 0.0291
in n-dodecane, 299.15 K | 0.0339
in n-dodecane, 301.65 K | 0.037
in n-dodecane, 305.15 K | 0.046
in n-dodecane, 308.15 K | 0.0535
in n-dodecane, 311.15 K | 0.0683
in n-heptane, 273.15 K | 0.00938
in n-heptane, 277.15 K | 0.0104
in n-heptane, 279.15 K | 0.0114
in n-heptane, 282.15 K | 0.013
in n-heptane, 285.15 K | 0.0151
in n-heptane, 288.15 K | 0.0177
in n-heptane, 291.15 K | 0.0217
in n-heptane, 294.15 K | 0.0258
in n-heptane, 297.15 K | 0.0293
in n-heptane, 299.65 K | 0.0345
in n-heptane, 303.15 K | 0.0428
in n-heptane, 306.15 K | 0.0484
in n-heptane, 309.15 K | 0.0566
in n-heptane, 311.15 K | 0.0629
in n-heptane, 313.15 K | 0.0716
in n-heptane, 316.15 K | 0.0852
in n-heptane, 319.15 K | 0.105
in n-octane, 273.15 K | 0.00895
in n-octane, 277.65 K | 0.0105
in n-octane, 283.15 K | 0.0139
in n-octane, 287.15 K | 0.0172
in n-octane, 291.15 K | 0.0211
in n-octane, 293.15 K | 0.0239
in n-octane, 297.15 K | 0.029
in n-octane, 301.15 K | 0.0371
in n-octane, 303.15 K | 0.0417
in n-octane, 306.65 K | 0.0487
in n-octane, 311.15 K | 0.0623
in n-octane, 314.15 K | 0.0755
in n-octane, 316.15 K | 0.0861
in n-octane, 319.15 K | 0.106

CC(=O)c1ccc2ccc(C)cc2c1
solubility (mole fraction)
Conditions | in n-dodecane | in n-heptane | in n-octane
273.15 K | 0.00013 | 0.000115 | 0.000114
275.15 K | 0.000135 | 0.000124 | –
276.15 K | – | – | 0.00013
277.15 K | – | 0.000138 | –
278.15 K | 0.000158 | – | –
279.15 K | – | 0.000157 | 0.000152
281.15 K | 0.000195 | – | 0.000172
282.15 K | – | 0.000182 | –
283.15 K | 0.000205 | – | –
284.15 K | – | – | 0.000194
286.15 K | 0.000239 | 0.000228 | –
287.15 K | – | – | 0.000231
289.15 K | 0.000287 | 0.000268 | 0.000254
291.15 K | – | 0.000297 | –
292.15 K | 0.000339 | – | 0.000291
293.15 K | – | 0.000344 | –
295.15 K | 0.00041 | – | 0.000343
297.15 K | 0.000454 | – | 0.000387
300.15 K | 0.000526 | – | –
